Results as given in patent US20100196273A1, “NOVEL AGENT FOR IN VIVO PET IMAGING OF TUMOR PROLIFERATION” (Board of Regents, University of Texas System, priority 2007, published 2010).

Columns and labels:
[1] = system: H441 (rapidly growing) human NSCLC tumor xenografts; test: microPET imaging of tumor proliferative activity, H441 NSCLC xenografts; assay type: in vivo, nude mice; settings: 3.7 MBq via tail vein, 2 h post-injection
Experimental: (§1) All radiotracers were synthesized following literature methods. Two human NSCLC cell lines, H441 (rapidly growing) and H3255 (slow growing) were used to grow (s.c.) tumor xenografts in nude mice. Eight nu/nu mice were injected with 3×10^6 cells (H3255) onto right shoulder, and 3 weeks later, 3×10^6 cells (H441) were injected onto opposite shoulder. When tumors grew approximately 1 cm in diameter, PET imaging with [^18F]-FLT, [^18F]-D-FMAU [^18F]-L-FMAU were performed on three consecutive days. Each animal received 3.7 MBq of radiotracer via the tail vein, then dynamic scan was performed using micro-PET up to 2 hours of post-injection.
(§2) Tumor uptake and tumor-to-muscle (T/M) ratios of [^18F]-FLT, [^18F]-D-FMAU and [^18F]L-FMAU for different tumors are summarized in Table 1. […] On the other hand, tumor-to muscle ratio of [^18F]-FLT accumulation was higher than that for [^18F]-D-FMAU and [^18F]-L-FMAU.

[2] = system: Colo205 human colon cancer tumor xenografts; test: micro-PET imaging of tumor proliferative activity, Colo205 colon cancer xenografts; assay type: in vivo, nude mice; settings: 3.7 MBq via tail vein, 2 h post-injection
Experimental: The radiotracers, [^18F]-FLT, [^18F]-D-FMAU and [^18F]-L-FMAU, were synthesized according literature methods in high specific activity. Human colon cancer cells, Colo205 were used to grow tumor xenografts in nude mice. Four nu/nu mice were injected (s.c.) with 3×10^6 cells onto the shoulder. When tumors were approximately 1 cm in diameter, PET imaging with [^18F]-FLT, [^18F]-D-FMAU [^18F]-L-FMAU were performed on three consecutive days using one tracer at a time. Each animal received 3.7 MBq of radiotracer via the tail vein, then dynamic imaging was performed using micro-PET up to 2 hours of post-injection.
However, tumor-to muscle ratio of [^18F]-FLT accumulation was lower than that of [^18F]-D-FMAU and [^18F]-L-FMAU. [^18F]-L-FMAU had higher uptake and tumor/muscle ratio compared to the D-[^18F]-FMAU, which is probably due to higher resistance to metabolic degradation.

[3] = system: H3255 (slow growing) human NSCLC tumor xenografts; test: microPET imaging of tumor proliferative activity, H3255 NSCLC xenografts; assay type: in vivo, nude mice; settings: 3.7 MBq via tail vein, 2 h post-injection
Experimental: as §1, §2

hepatitis B virus (HBV) = settings: reported, Liu et al. 1998; cited from earlier work
[4] = system: human immunodeficiency virus; settings: reported, Liu et al. 1998; cited from earlier work
Epstein-Barr virus = settings: reported, Liu et al. 1998; cited from earlier work
[5] = reported, Liu et al. 1998; cited from earlier work

Compound | Tumor uptake % ID/g [1] [% ID/g] | tumor-to-muscle (T/M) ratio [1] | Tumor uptake % ID/g [2] [% ID/g] | tumor-to-muscle (T/M) ratio [2] | Tumor uptake % ID/g [3] [% ID/g] | tumor-to-muscle (T/M) ratio [3] | antiviral activity against hepatitis B virus (hepatitis B virus (HBV)) | antiviral activity against human immunodeficiency virus [4] | antiviral activity against Epstein-Barr virus (Epstein-Barr virus) | cytotoxicity [5]
Cc1cn([C@H]2O[C@@H](CO)[C@H](O)[C@H]2[18F])c(=O)[nH]c1=O [[^18F]-L-FMAU, 2′ deoxy-2′-[^18F]-fluoro-5-methyl-1-β-L-arabinofuranosyluracil] | 3.13 ± 1.11 | 4.15 ± 1.82 | 2.93 ± 0.75 | 2.85 ± 0.89 | 1.38 ± 0.81 | 1.62 ± 0.50 | – | – | – | –
Cc1cn([C@H]2O[C@@H](CO)[C@H](O)[C@H]2F)c(=O)[nH]c1=O [L-FMAU, 2′-Deoxy-2′-fluoro-5-methyl-1-β-L-arabinofuranosyl-uracil] | – | – | – | – | – | – | potential antiviral activities | not human immunodeficiency virus | potential antiviral activities | low cytotoxicity
Cc1cn([C@H]2C[C@H]([18F])[C@@H](CO)O2)c(=O)[nH]c1=O [[^18F]-FLT, [^18F]-3′-deoxy-3′-fluorothymidine] | 5.10 ± 1.45 | 12.94 ± 4.38 | 5.20 ± 1.32 | 1.51 ± 0.61 | 0.57 ± 0.33 | 1.50 ± 0.90 | – | – | – | –
Cc1cn([C@@H]2O[C@H](CO)[C@@H](O)[C@@H]2[18F])c(=O)[nH]c1=O [[^18F]-D-FMAU] | 7.74 ± 1.39 | 3.37 ± 1.19 | 2.37 ± 0.58 | 1.95 ± 0.37 | 4.49 ± 1.08 | 1.96 ± 0.74 | – | – | – | –
